Calls of active or inactive are those of the source. No cut-off for these calls is given here.

Assay [1] concerns the target Mu-type opioid receptor (Homo sapiens) (UniProt P35372). Particulars: HEK293T, time 10.0 min.
The target of the next assay is T1, D(4) dopamine receptor (Homo sapiens, UniProt P21917).
T1 sequence (P21917 whole entry): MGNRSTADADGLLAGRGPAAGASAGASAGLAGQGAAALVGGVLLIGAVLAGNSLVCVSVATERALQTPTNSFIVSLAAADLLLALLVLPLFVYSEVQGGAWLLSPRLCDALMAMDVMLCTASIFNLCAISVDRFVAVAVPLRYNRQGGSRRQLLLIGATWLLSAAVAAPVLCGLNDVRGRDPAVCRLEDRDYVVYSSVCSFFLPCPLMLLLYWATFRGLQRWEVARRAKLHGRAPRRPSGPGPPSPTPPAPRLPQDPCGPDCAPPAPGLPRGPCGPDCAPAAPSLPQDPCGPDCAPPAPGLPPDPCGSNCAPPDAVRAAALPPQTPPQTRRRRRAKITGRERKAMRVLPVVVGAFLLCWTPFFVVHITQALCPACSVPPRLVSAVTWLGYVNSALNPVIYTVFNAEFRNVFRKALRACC
The assay can be described thus: Displacement of [3H]-N-methylspiperone from human dopamine D4 receptor expressed in HEK293 cell membranes incubated for 60 mins by microbeta scintillation counting analysis. Also noted: species or system Membrane. In general terms: Displacement assays read how much labelled ligand stays bound in the presence of the test substance.

In assay [2] the target is Mu-type opioid receptor (Homo sapiens) (UniProt P35372). Particulars: HEK293T, time 10.0 min. This is another data set of the same source.
Mu-type opioid receptor (Homo sapiens), sequence (P35372 whole entry): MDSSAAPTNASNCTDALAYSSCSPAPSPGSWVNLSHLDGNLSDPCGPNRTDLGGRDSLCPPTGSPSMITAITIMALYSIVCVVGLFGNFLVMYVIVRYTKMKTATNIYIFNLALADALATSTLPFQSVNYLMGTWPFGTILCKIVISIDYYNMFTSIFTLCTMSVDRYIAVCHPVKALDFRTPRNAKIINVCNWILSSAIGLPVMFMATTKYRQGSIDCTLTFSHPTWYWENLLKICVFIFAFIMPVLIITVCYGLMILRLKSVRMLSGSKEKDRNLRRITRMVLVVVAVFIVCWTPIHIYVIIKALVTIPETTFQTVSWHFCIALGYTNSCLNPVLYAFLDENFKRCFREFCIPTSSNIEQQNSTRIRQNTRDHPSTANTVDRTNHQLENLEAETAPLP
Assay [3] has as its target T2, D(3) dopamine receptor (Homo sapiens, UniProt P35462). The assay can be described thus: Displacement of [3H]-N-methylspiperone from human dopamine D3 receptor expressed in HEK293 cell membranes incubated for 60 mins by microbeta scintillation counting analysis. Details: species or system Membrane.
The target of assay [4] is Mu-type opioid receptor (Homo sapiens) (UniProt P35372). Particulars: HEK293T, time 10.0 min. The source holds these as a separate data set.
Assay [5] deals with T3, D(2) dopamine receptor (Homo sapiens, UniProt P14416). The assay can be described thus: Displacement of [3H]-N-methylspiperone from human dopamine D2 receptor expressed in HEK293 cell membranes incubated for 60 mins by microbeta scintillation counting analysis. Also noted: species or system Membrane.
T3 sequence (P14416 whole entry): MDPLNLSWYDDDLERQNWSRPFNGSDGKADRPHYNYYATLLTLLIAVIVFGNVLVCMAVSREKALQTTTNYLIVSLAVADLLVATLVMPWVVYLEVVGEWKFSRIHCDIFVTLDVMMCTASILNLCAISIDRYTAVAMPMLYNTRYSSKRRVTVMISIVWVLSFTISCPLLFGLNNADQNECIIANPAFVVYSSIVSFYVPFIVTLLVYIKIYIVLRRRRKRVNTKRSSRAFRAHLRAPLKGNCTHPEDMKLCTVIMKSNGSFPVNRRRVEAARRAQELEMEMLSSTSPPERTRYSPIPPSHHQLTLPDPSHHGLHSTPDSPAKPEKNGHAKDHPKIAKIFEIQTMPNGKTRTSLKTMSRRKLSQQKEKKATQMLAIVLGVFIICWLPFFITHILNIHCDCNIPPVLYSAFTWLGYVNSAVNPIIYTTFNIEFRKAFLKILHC
In assay [6] the target is T3, D(2) dopamine receptor. Kind of assay: Displacement of [3H]-(R)-(+)7-OH-DPAT from human dopamine D2 receptor expressed in HEK293 cell membranes incubated for 90 mins by microbeta scintillation counting analysis. Also noted: species or system Membrane.
Assay [7] has as its target T2, D(3) dopamine receptor. The assay can be described thus: Displacement of [3H]-(R)-(+)7-OH-DPAT from human dopamine D3 receptor expressed in HEK293 cell membranes incubated for 90 mins by microbeta scintillation counting analysis. Also noted: species or system Membrane.
For assay [8], the target named is T2, D(3) dopamine receptor. Kind of assay: Agonist activity at human dopamine D3 receptor expressed in HEK293T cells assessed as GalphaoA activation preincubated for 5 mins with coelenterazine followed by compound addition and measured after 10 mins by BRET assay. The format is functional, cell-based. A general note: In BRET a luciferase serves as donor, and the signal depends on an acceptor being close.

For assay [9], the target named is T2, D(3) dopamine receptor. The assay can be described thus: Antagonist activity at human […] expressed in HEK293T cells assessed as GalphaoA activation preincubated with compound in D-PBS for 3 hrs followed by coelenterazine addition for 5 mins once again compound addition for 10 mins by BRET assay. It is filed as functional, cell-based.

For assay [10], the target named is T2, D(3) dopamine receptor. Particulars: HEK293T, time 10.0 min.

T2 sequence (P35462 whole entry): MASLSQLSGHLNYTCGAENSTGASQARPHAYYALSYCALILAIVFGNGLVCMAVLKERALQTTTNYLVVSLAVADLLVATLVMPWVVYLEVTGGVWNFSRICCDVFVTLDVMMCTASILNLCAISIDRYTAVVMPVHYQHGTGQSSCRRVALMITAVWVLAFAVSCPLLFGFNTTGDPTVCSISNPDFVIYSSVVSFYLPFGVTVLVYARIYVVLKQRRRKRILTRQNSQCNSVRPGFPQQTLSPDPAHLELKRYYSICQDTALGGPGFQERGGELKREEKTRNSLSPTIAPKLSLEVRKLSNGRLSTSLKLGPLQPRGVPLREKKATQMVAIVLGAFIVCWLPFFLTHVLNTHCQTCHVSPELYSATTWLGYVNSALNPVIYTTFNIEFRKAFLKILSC

As usually defined, the Ki is the dissociation constant of the complex between target and ligand, obtained from inhibition or displacement. For `CCOC(=O)/C=C1\[C@@H]2CCC[C@@]1(c1cccc(O)c1)CCN2C[C@@H]1C[C@H]1CCNC(=O)c1cc2ccccc2[nH]1` (relative stereo), the pEC50 entry in [1], in [2] and in assay [4] was “inactive” each time. Also, the Ki at D(4) dopamine receptor was determined as 17600 nM; at D(3) dopamine receptor [3], 2300 nM; on D(2) dopamine receptor [5] it was 4860 nM.

Consider `CCc1cccc(N2CCN(CCC(C(=O)N(C)C)(c3ccccc3)c3ccccc3)CC2)c1Cl`, for which the Ki on D(2) dopamine receptor [6] was determined as 20.3 nM; on D(4) dopamine receptor it was 64.8 nM; on D(3) dopamine receptor [7], 197 nM; on D(3) dopamine receptor [3], 69 nM; on D(2) dopamine receptor [5], 43 nM.

Turning to `Oc1cccc([C@]23CCC[C@H](NCC2)[C@@H]3O)c1`, the Ki at D(2) dopamine receptor [6], at D(4) dopamine receptor, at D(3) dopamine receptor [7], at D(3) dopamine receptor [3] and on D(2) dopamine receptor [5] was over 100000 nM in each case.

Usually EC50 stands for the concentration giving half of the maximal effect. As for `CCOC(=O)/C=C1\[C@@H]2CCC[C@@]1(c1cccc(O)c1)CCN2C[C@H]1C[C@@H]1CCNC(=O)c1cc2ccccc2[nH]1` (relative stereo), the pEC50 result in assay [1], in [2] and in assay [4] was “inactive” throughout. In addition, the results for the Ki at D(4) dopamine receptor, on D(3) dopamine receptor [3] and on D(2) dopamine receptor [5] were 29200 nM, 1290 nM and 2860 nM, respectively. For the same molecule, the EC50 on D(3) dopamine receptor [8] was 1480 nM.

A word on the pIC50: it is the negative decadic logarithm of the IC50, by convention in mol/L. As to `CCOC(=O)/C=C1\[C@@H]2CCC[C@@]1(c1cccc(O)c1)CCN2CCCCNC(=O)c1cc2ccccc2[nH]1`, at D(3) dopamine receptor [9], the pIC50 was over 5. Also, the pEC50 result (in [1]; on D(3) dopamine receptor [10]; in assay [2]; in assay [4]) was “inactive” in each case. The Ki worked out at 13800 nM at D(4) dopamine receptor, 13700 nM on D(3) dopamine receptor [3] and 2950 nM on D(2) dopamine receptor [5].

On to `CN(C)C(=O)C(CCNCCC(O)CN1CCN(c2cccc(Cl)c2Cl)CC1)(c1ccccc1)c1ccccc1` (stereo unspecified), for which the Ki on D(2) dopamine receptor [6] stood at 167 nM; on D(4) dopamine receptor, 2780 nM; at D(3) dopamine receptor [7], 209 nM; on D(3) dopamine receptor [3], 572 nM; at D(2) dopamine receptor [5] it was 700 nM.

For `CCc1cccc(N2CCN(CC(O)CCNCCC(C(=O)N(C)C)(c3ccccc3)c3ccccc3)CC2)c1Cl` (stereo unspecified), the Ki is 114 nM at D(2) dopamine receptor [6]; 1260 nM at D(4) dopamine receptor; 123 nM on D(3) dopamine receptor [7]; 123 nM at D(3) dopamine receptor [3]; 457 nM at D(2) dopamine receptor [5].

Values taken from ChEMBL document CHEMBL5046218, “Novel Dual-Target μ-Opioid Receptor and Dopamine D3 Receptor Ligands as Potential Nonaddictive Pharmacotherapeutics for Pain Management” (J Med Chem, 2021).
